Laboratory results taken from PubChem BioAssay AID1241 (SRMLSC, 2008).

Test: compounds inducing NF-kB luciferase expression – cell-based, SH-SY5Y, dose response (AID 1241)
Conditions: SH-SY5Y NF-kB promoter luciferase reporter, fold induction
For `c1ccc(OCCSc2nnnn2-c2ccccc2)cc1`, the EC50 was 8350 nM.
In the case of `O=C(Nc1ccc2c(c1)OCO2)c1ccc(Br)s1`, the EC50 is reported as 4220 nM.
Compound `Cc1ccc(/C=C/c2nc3ccccc3[nH]2)o1` has an EC50 of 2060 nM.
Compound `Cc1ccc(Cc2cnc(NC(=O)c3cccs3)s2)cc1` has an EC50 of 4960 nM.
In the case of `Cc1nn(C)cc1/C=C/C(=O)c1ccccc1`, the EC50 is reported as 2750 nM.
`Cc1sc(NC(=O)c2ccc(Cl)s2)c(C(N)=O)c1C` showed an EC50 of 1700 nM.
Work on `COc1ccc(C2=Nc3cc(C)ccc3OC2)cc1` yielded an EC50 of 1950 nM.
Compound `O=C(Nc1ccc(N2CCCC2)c(Cl)c1)c1ccco1` has an EC50 of 1680 nM.
`COc1ccc(-c2cc(=O)c3ccccc3s2)cc1` gave an EC50 of 2060 nM.
`Cc1ccc(-c2cc(-c3cccs3)[nH]n2)c(O)c1` gave an EC50 of 13100 nM.
For `N/C(=N\OC(=O)c1ccc(Cl)cc1Cl)c1cccnc1`, the EC50 was 2100 nM.
Compound `C=CCSc1nnc(-c2ccc(Cl)cc2Cl)o1` has an EC50 of 4370 nM.
In the case of `Cc1ccc(C(=O)c2cc([N+](=O)[O-])ccc2N2CCOCC2)c(C)c1`, the EC50 is reported as 3030 nM.
`COC(=O)c1sc2nc3c(cc2c1N)CCCC3` gave an EC50 of 4060 nM.
Compound `Cc1ccc(/C=N/Nc2cccc(C(=O)O)c2)s1` has an EC50 of 2120 nM.
For `O=C(CSc1nnnn1-c1ccccc1)Nc1nsc(-c2ccccc2)n1`, the EC50 was 14200 nM.
In the case of `Cc1cccc(-n2ncc3c(NC4CCCCC4)ncnc32)c1`, the EC50 is reported as 2330 nM.
`O=C(O)c1ccc(N/N=C/c2cn(-c3ccccc3)nc2-c2cccs2)cc1` showed an EC50 of 1700 nM.
Compound `Nc1nn(-c2cccc(F)n2)cc1-c1ccccc1` has an EC50 of 26000 nM.
Compound `CSc1ccc(C(=O)/C=C/c2ccc(N)cc2)cc1` has an EC50 of 3840 nM.
Work on `O=C(NC1CCCCCCC1)c1ccc2c(c1)OCO2` yielded an EC50 of 11000 nM.
`O=C(Nc1cnc2ccccc2c1)c1ccco1` gave an EC50 of 1380 nM.
For `CS(=O)(=O)N1N=C(c2ccc(Br)cc2)CC1c1ccc2c(c1)OCO2` (stereo unspecified), the EC50 was 2680 nM.
Work on `COc1cccc(/C=C/C(=O)Nc2ccc3c(c2)OCCO3)c1` yielded an EC50 of 3940 nM.
With `O/C(=C\c1ccc2ccccc2n1)c1ccc(O)cc1O` the EC50 was 954 nM.
Work on `Cc1ccsc1C(=O)N/N=C/c1ccc2c(c1)OCO2` yielded an EC50 of 1140 nM.
For `Cc1ccc(C(=O)Nc2nnc(SCC(=O)N3CCCc4ccccc43)s2)cc1`, the EC50 was 1660 nM.
With `Cc1ccc(/C=C2\Sc3ccccc3C2=O)s1` the EC50 was 5980 nM.
In the case of `CC(C)(C)C(=O)Nc1nc(-c2ccc3c(c2)OCO3)cs1`, the EC50 is reported as 2660 nM.
For `CCC(=O)Oc1ccc(-c2cnc3ccccc3n2)cc1`, the EC50 was 21200 nM.
With `O=C(Nc1nc2ccccc2s1)c1ccc(F)cc1` the EC50 was 1200 nM.
In the case of `CC(=O)Nc1cccc(-c2csc(Nc3cccc(C)n3)n2)c1`, the EC50 is reported as 1630 nM.
In the case of `Cc1ccc(OCCSc2ncccn2)c(C)c1`, the EC50 is reported as 5420 nM.
Work on `CCN(CC)c1ccc(N=Nc2nn(C)c(C)c2[N+](=O)[O-])cc1` yielded an EC50 of 8190 nM.
`O=[N+]([O-])c1ccc(N/N=C/c2ccc[nH]2)cc1` gave an EC50 of 3630 nM.
Compound `Cc1ccccc1-c1cc(-c2ccccc2O)n[nH]1` has an EC50 of 18000 nM.
Compound `Cc1ccc2nc3cc([N+](=O)[O-])cc([N+](=O)[O-])c3cc2c1` has an EC50 of 1190 nM.
For `COc1ccc(NC(=O)c2nc3ccccc3s2)cc1`, the EC50 was 461 nM.
`CC(=O)Oc1ccc(Cl)cc1/C=C/c1ccc2ccccc2n1` showed an EC50 of 836 nM.
For `COc1ccc(Nc2nc3ccccc3s2)cc1`, the EC50 was 20400 nM.
Work on `Clc1ccc(-c2nnc(SCc3ccon3)o2)c(Cl)c1` yielded an EC50 of 1060 nM.
For `O=C(Oc1c(CN2CCOCC2)cc(Cl)c2cccnc12)c1ccc(F)cc1`, the EC50 was 13100 nM.
With `O=C(NCc1cccnc1)c1ccc([N+](=O)[O-])o1` the EC50 was 2810 nM.
`C/C(=N\Nc1nc2ccccc2[nH]1)c1cccs1` gave an EC50 of 2800 nM.
Work on `N#Cc1cccc(NCC(=O)Nc2ccc3c(c2)OCCO3)c1` yielded an EC50 of 6600 nM.
With `Cc1cc(/C=C(\C#N)C(=O)Nc2ccccc2F)c(C)[nH]1` the EC50 was 28700 nM.
`CC(=O)Nc1ccc(-c2cc3ccccc3o2)cc1` showed an EC50 of 5560 nM.
`O=C(Nc1nccs1)c1ccc(-c2ccc(Cl)cc2)o1` gave an EC50 of 27600 nM.
`O=C(O)c1cccc(N/N=C/c2ccc(-c3ccccc3)cc2)c1` gave an EC50 of 1790 nM.
`COc1ccc(Nc2nc(-c3ccccc3)cs2)cc1` showed an EC50 of 752 nM.
`Cc1ccc(C)c(NC(=O)c2ccc3ccccc3n2)c1` showed an EC50 of 1880 nM.
In the case of `CCn1c(/C=C/c2ccccc2)nc2ccccc21`, the EC50 is reported as 1580 nM.
Compound `Cc1cc(NC(=O)c2ccccc2)sc1C` has an EC50 of 17300 nM.
`Cn1c(C(=O)Nc2ccc3c(c2)OCCO3)cc2sccc21` showed an EC50 of 1170 nM.
With `O=C(Nc1nc2ccccc2[nH]1)c1cc2ccccc2o1` the EC50 was 1230 nM.
`CN(C)c1ccc(-c2nnc(-c3cccs3)o2)cc1` gave an EC50 of 2240 nM.
Work on `Nc1ccccc1C(=O)OCCOc1ccccc1` yielded an EC50 of 910 nM.
For `CC(C)c1cc(C(=O)Nc2cccc(Cl)c2)no1`, the EC50 was 2420 nM.
In the case of `O=C(NC1=NCCS1)c1sc2ccccc2c1Cl`, the EC50 is reported as 5760 nM.
With `Cc1ccc(-c2noc(-c3ccccc3Br)n2)cc1` the EC50 was 1830 nM.
`COc1cc(/C=N/O)ccc1OCc1ccc([N+](=O)[O-])cc1` showed an EC50 of 1690 nM.
`Fc1ccc(-c2cn3cc(C(F)(F)F)cc(Cl)c3n2)cc1` gave an EC50 of 4450 nM.
With `Cc1csc(NC(=O)c2ccc(C)c([N+](=O)[O-])c2)n1` the EC50 was 2120 nM.
Work on `CCCCc1ccc(-c2nc(-c3ccncc3)no2)cc1` yielded an EC50 of 4140 nM.
With `Cc1nn(-c2ccccc2Cl)c(Cl)c1/C=N/Nc1cccc(C(=O)O)c1` the EC50 was 4370 nM.
For `Cc1ccc(C(=O)C(C)OC(=O)c2ccccc2[N+](=O)[O-])cc1` (stereo unspecified), the EC50 was 9080 nM.
`O=C(Nc1cccnc1Cl)c1ccc2c(Cl)c3c(nc2c1)CCC3` gave an EC50 of 674 nM.
`O=Cc1cn(-c2ccccc2)nc1-c1ccc2c(c1)OCCO2` showed an EC50 of 6400 nM.
In the case of `Fc1ccccc1/C=C/c1ccc2ccccc2n1`, the EC50 is reported as 319 nM.
Work on `C(=N\Nc1nc(-c2ccccc2)cs1)/c1cccs1` yielded an EC50 of 5970 nM.
Compound `Cc1ccsc1/C=N/Nc1nc2ccccc2[nH]1` has an EC50 of 8260 nM.
`O=C(Nc1ccccn1)c1sc2cccc(F)c2c1Cl` gave an EC50 of 1760 nM.
For `Oc1ccc(-c2csc(Nc3ncccn3)n2)c(O)c1`, the EC50 was 945 nM.
`CC(=Nc1ccccc1)c1sc2ccccc2c1O` gave an EC50 of 6490 nM.
For `Cc1ccc(-c2nc3ccccc3[nH]2)cc1N`, the EC50 was 3410 nM.
With `Fc1ccccc1Cn1nnc(-c2ccc3c(c2)OCO3)n1` the EC50 was 8430 nM.
`N#C/C(=N\Nc1ccccc1[N+](=O)[O-])C(=N)N1CCCCC1` gave an EC50 of 6940 nM.
In the case of `Cc1ccc(NC(=O)c2ccccc2O)cc1`, the EC50 is reported as 3230 nM.
`CCOC(=O)CSc1nc2cc(C)ccc2cc1C#N` showed an EC50 of 1100 nM.
With `Cc1ccc(-c2cc(-c3ccccc3Cl)[nH]n2)c(O)c1` the EC50 was 7150 nM.
For `CCCOc1ccc(C(=O)Nc2ccc(Cl)cn2)cc1`, the EC50 was 1090 nM.
With `N/C(=N\OC(=O)COc1ccc(Br)cc1Cl)c1ccccn1` the EC50 was 1060 nM.
With `Brc1ccccc1/C=N/Nc1ccc2ccccc2n1` the EC50 was 5500 nM.
For `CCN(CC)C(=O)c1sc2nc(-c3ccccc3)ccc2c1N`, the EC50 was 3090 nM.
`Cc1cccc(-c2cc3c(nn2)-c2ccccc2C3=O)c1` gave an EC50 of 2600 nM.
In the case of `CSc1ccc(/C=C/c2ccc3cccc(O)c3n2)cc1`, the EC50 is reported as 2490 nM.
Work on `c1ccc2sc(NN=C3CCCC3)nc2c1` yielded an EC50 of 5210 nM.
With `COc1ccccc1Oc1ccc(N/C=C/C(=O)c2ccco2)cc1` the EC50 was 7130 nM.
`COc1ccc(/C=N/Nc2cc(OC)ncn2)cc1` showed an EC50 of 341 nM.
For `O=C(Nc1nc2ccccc2s1)NC1CCCCC1`, the EC50 was 2420 nM.
`COc1ccc(C2CC(c3c(O)cc(C)oc3=O)=NCCS2)c(OC)c1` (stereo unspecified) gave an EC50 of 2330 nM.
With `O=C(Nc1cccnc1)c1cc2c(ccc3ccccc32)o1` the EC50 was 3460 nM.
With `CCN(CC)S(=O)(=O)c1cc(C(=O)OCC(=O)Nc2ccc(-c3nc4ccc(C)cc4s3)cc2)ccc1F` the EC50 was 516 nM.
Work on `CCCCc1ccc(-c2ccc(Br)cc2O)nc1` yielded an EC50 of 3360 nM.
With `CCOC(=O)c1sc(=NC(=O)c2ccccc2)n(C)c1C` the EC50 was 2230 nM.
For `Cc1ccc(-c2nc3ccccc3[nH]2)s1`, the EC50 was 6090 nM.
